Experimental findings from article PMC11713868, “Cryo-EM Structure of Recombinantly Expressed hUGDH Unveils a Hidden, Alternative Allosteric Inhibitor” (Biochemistry, 2024) are described below.

Data set [1] deals with T1, Human UDP-glucose dehydrogenase (hUGDH) (Homo sapiens, UniProt O60701).
T1 sequence (O60701 1-494): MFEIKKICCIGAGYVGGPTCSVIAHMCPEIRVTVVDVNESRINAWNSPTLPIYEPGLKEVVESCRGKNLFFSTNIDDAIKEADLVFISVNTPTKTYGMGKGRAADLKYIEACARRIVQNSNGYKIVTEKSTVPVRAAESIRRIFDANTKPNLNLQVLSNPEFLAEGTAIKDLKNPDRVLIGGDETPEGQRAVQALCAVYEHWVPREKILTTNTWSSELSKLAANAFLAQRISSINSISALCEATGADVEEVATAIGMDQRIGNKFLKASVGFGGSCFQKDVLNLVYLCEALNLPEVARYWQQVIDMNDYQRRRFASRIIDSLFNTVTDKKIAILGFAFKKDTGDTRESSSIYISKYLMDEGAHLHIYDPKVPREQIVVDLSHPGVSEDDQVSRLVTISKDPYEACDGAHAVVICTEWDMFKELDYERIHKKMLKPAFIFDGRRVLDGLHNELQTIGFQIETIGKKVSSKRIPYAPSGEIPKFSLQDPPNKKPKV
Nature of the data set: NADH absorbance ([…] nm) steady-state kinetics, global fit of UDP-Glc saturation curves. More on the design: gene UGDH; recombinant unliganded hUGDH, His tag removed. Type of data set: biochemical.

In data set [2] the target is T1, Human UDP-glucose dehydrogenase (hUGDH). Nature of the data set: cryo-EM structure ([…] Å) of copurified complex, HPLC/NMR/MS ligand identification; Ki from global fit of competitive inhibition kinetics. The format is biochemical. More on the design: gene UGDH; recombinant hUGDH, N-terminal His tag removed by TEV; hexamer.
Data set [3] concerns the molecule itself. Nature of the data set: cryo-EM structure; hUGDH:UX4O (copurified UDP-4-keto-xylose bound), 1 mg/mL, 20 mM Hepes pH 7.5, 100 mM NaCl, 1 mM DTT; C2 reconstruction at 2.38 Å, E-omega state.
Substrate in the data set “purified protein”: NC(=O)c1ccc[n+]([C@@H]2O[C@H](COP(=O)([O-])OP(=O)(O)OC[C@H]3O[C@@H](n4cnc5c(N)ncnc54)[C@H](O)[C@@H]3O)[C@@H](O)[C@H]2O)c1
Put plainly: purified protein. The format is biochemical, Homo sapiens. Particulars: NAD^+ binding (NB) domain; negative cooperativity; varied: cofactor.

A word on the Ki: it is a dissociation constant, usually derived from enzyme kinetics or from competition with a known ligand. For `O=c1ccn([C@@H]2O[C@H](COP(=O)(O)OP(=O)(O)O[C@H]3OC[C@@H](O)[C@H](O)[C@H]3O)[C@@H](O)[C@H]2O)c(=O)[nH]1` [UDP-Xyl, UDP-xylose], in data set [1], the Ki was determined as 440 ± 20 nM.

Turning to `O=C1CO[C@H](OP(=O)(O)OP(=O)(O)OC[C@H]2O[C@@H](n3ccc(=O)[nH]c3=O)[C@H](O)[C@@H]2O)[C@H](O)[C@H]1O` [UX4O, UDP-4-keto-xylose], the Ki in data set [2] was found to be 750 ± 60 nM.

B1: Human UDP-glucose dehydrogenase (hUGDH) (enzyme)
chain: MFEIKKICCIGAGYVGGPTCSVIAHMCPEIRVTVVDVNESRINAWNSPTLPIYEPGLKEVVESCRGKNLFFSTNIDDAIKEADLVFISVNTPTKTYGMGKGRAADLKYIEACARRIVQNSNGYKIVTEKSTVPVRAAESIRRIFDANTKPNLNLQVLSNPEFLAEGTAIKDLKNPDRVLIGGDETPEGQRAVQALCAVYEHWVPREKILTTNTWSSELSKLAANAFLAQRISSINSISALCEATGADVEEVATAIGMDQRIGNKFLKASVGFGGSCFQKDVLNLVYLCEALNLPEVARYWQQVIDMNDYQRRRFASRIIDSLFNTVTDKKIAILGFAFKKDTGDTRESSSIYISKYLMDEGAHLHIYDPKVPREQIVVDLSHPGVSEDDQVSRLVTISKDPYEACDGAHAVVICTEWDMFKELDYERIHKKMLKPAFIFDGRRVLDGLHNELQTIGFQIETIGKKVSSKRIPYAPSGEIPKFSLQDPPNKKPKV
notes: UDP-glucose dehydrogenase, human, UniProtKB O60701; also called hUGDH:UX4O (the same protein with copurified UDP-4-keto-xylose); unliganded hUGDH; source: E. coli, purified (TALON column, TEV protease digestion, Superdex 200); not shown: histidine tag, N-terminal, cleaved
Usually stoichiometry N stands for a count of units in the complex or per binding partner. A word on the Km: it is the concentration of substrate that gives half-maximal velocity. For the molecule B1, the “stoichiometry N” value in data set [3] is 6. In addition, in the data set “purified protein”, the Km worked out at 83.4 ± 10.4 µM.
